Test results from patent publication US5053070A, “Pyrimidine derivatives, preparation processes thereof, herbicide containing the same, and herbicidal compositions containing the same along with other active ingredient” (Mitsui Toatsu Chemicals, Incorporated, priority 1988, dated 1991).

How the values were obtained:
[1] = tested on: rice; experiment: Treatment of soil under submerged condition, pre-emergence (Test 4), injury; format: in vivo; conditions: 30 g ai/a granule, 30 days later
Experimental: 1/5000-are Wagner pots were filled with soil. Seeds or tubers of barnyardgrass, Monochoria vaginalis, bulrush, Sagittaria pygmaea, Cyperus seroylnus and Eleocharis kuroguwai were seeded or planted under submerged condition. Two pairs of rice seedlings (2-3 leaf stage), which had been reared in advance, were transplanted to each pot and were allowed to germinate in a green house. Each pair consisted of two rice seedlings. One day later (before emergence of weeds), each pot was treated with a granule which had been prepared by processing a predetermined amount of the test composition in accordance with a similar method to the method described in Formulation Example 9. The state of emergence of weeds and the state of injury of rice were observed 30 days later.
In the table, the degrees of damages of the test plants and the degrees of injury of rice are shown in a similar manner to Example 2.

[2] = tested on: green foxtail; experiment: Upland soil application test (Test 2); format: in vivo; conditions: 30 g ai/a, soil spray before emergence, 30 days later
Experimental: (§1) Resin-made 1/2500-are pots were filled with the soil of an upland field. After they were fertilized, soybean, peanut and cotton were seeded and 2-3 cm soil covering was applied. Seeds of redroot pigweed, common lambsquarters, barnyardgrass, green foxtail, large crabgrass, foxtail meadow and johnsongrass had been uniformly mixed with the soil. They were allowed to germinate in a green house. One day later (before emergence of weeds), a wettable powder prepared from a predetermined amount of each test compound in a similar manner to the method described in Formulation Example 1 was diluted with water and then sprayed evenly at an application rate equal to 10 l per are onto the surface of the soil by means of a pressure-operated ULV (ultra low volume) sprayer. Influence to the crops and weeds were observed 30 days later. The results are shown in Table 3, in which the degree of damages of each test plant and the degree of injury to each crop were determined by comparing the air-dried weights of the test plant and crop with those of the corresponding plant and crop in untreated pots and are shown in accordance with the following standard: […]

[3] = tested on: johnsongrass; experiment: Upland soil application test (Test 2); format: in vivo; conditions: 30 g ai/a, soil spray before emergence, 30 days later
Experimental: as §1

[4] = tested on: redroot pigweed; experiment: Upland soil application test (Test 2); format: in vivo; conditions: 30 g ai/a, soil spray before emergence, 30 days later
Experimental: as §1

[5] = tested on: barnyardgrass; experiment: Upland soil application test (Test 2); format: in vivo; conditions: 30 g ai/a, soil spray before emergence, 30 days later
Experimental: as §1

[6] = tested on: common lambsquarters; experiment: Upland soil application test (Test 2); format: in vivo; conditions: 30 g ai/a, soil spray before emergence, 30 days later
Experimental: as §1

[7] = tested on: large crabgrass; experiment: Upland soil application test (Test 2); format: in vivo; conditions: 30 g ai/a, soil spray before emergence, 30 days later
Experimental: as §1

[8] = tested on: foxtail meadow; experiment: Upland soil application test (Test 2); format: in vivo; conditions: 30 g ai/a, soil spray before emergence, 30 days later
Experimental: as §1

[9] = tested on: green foxtail; experiment: Upland foliar application test (Test 3); format: in vivo; conditions: 30 g ai/a, foliar spray at 2-3 leaves, 30th day
Experimental: (§2) Resin-made 1/10000-are pots were filled with the soil of an upland field. Redroot pigweed, common lambsquarters, foxtail meadow, johnsongrass, barnyardgrass, green foxtail, large crabgrass, soybean, peanut and cotton were separately seeded and were allowed to germinate in a green house. When each plant grew to the stage of 2-3 leaves, an emulsion formulated from a predetermined amount of each test compound in a similar manner to the method described in Formulation Example 11 was diluted with water to a predetermined dilution rate and then sprayed at an application rate equal to 5 l per are onto the foliage of each plant by means of a pressure-operated ULV (ultra low volume) sprayer. Influence to the crops and weeds were observed on the 30th day after the spray of the herbicides. The results are shown in Table 4 in which the degree of damages of each test plant and the degree of injury to each crop are shown in a similar manner to Test 2.

[10] = tested on: johnsongrass; experiment: Upland foliar application test (Test 3); format: in vivo; conditions: 30 g ai/a, foliar spray at 2-3 leaves, 30th day
Experimental: as §2

[11] = tested on: redroot pigweed; experiment: Upland foliar application test (Test 3); format: in vivo; conditions: 30 g ai/a, foliar spray at 2-3 leaves, 30th day
Experimental: as §2

[12] = tested on: barnyardgrass; experiment: Upland foliar application test (Test 3); format: in vivo; conditions: 30 g ai/a, foliar spray at 2-3 leaves, 30th day
Experimental: as §2

[13] = tested on: common lambsquarters; experiment: Upland foliar application test (Test 3); format: in vivo; conditions: 30 g ai/a, foliar spray at 2-3 leaves, 30th day
Experimental: as §2

[14] = tested on: large crabgrass; experiment: Upland foliar application test (Test 3); format: in vivo; conditions: 30 g ai/a, foliar spray at 2-3 leaves, 30th day
Experimental: as §2

[15] = tested on: foxtail meadow; experiment: Upland foliar application test (Test 3); format: in vivo; conditions: 30 g ai/a, foliar spray at 2-3 leaves, 30th day
Experimental: as §2

[16] = tested on: ALS (acetolactate syntase); experiment: ALS enzyme assay (Test 1); format: biochemical, pea; conditions: 1,000 ppm (0.5 mg/0.5 ml)
Experimental: To determine the selectivity in enzyme level between crops and weeds, and ALS enzyme assay was conducted using pea as a representative of broadleaf crops and barnyardgrass as a representative of narrowleaf weeds.
After seeds of pea and barnyardgrass were allowed to germinate at 25° C. for 8-14 days in a dark place, partially-purified suspensions (Suspensions A) of acetolactate syntase were separately obtained from seedlings in accordance with the method described in the literature, Plant Physiology, 75, 827-831.
In a test tube, 0.5 mg of one of test compounds was weighed, followed by the addition of 0.15 ml of a 20 mM K2 HPO4 solution and 0.25 ml of a reaction substrate medium which consisted of 40 mM of K2 HPO4, 40 mM of sodium pyruvate, 1 mM of TPP, 1 mM of MgCl2 and 20 μM of FAD so that 0.4 ml of a reaction solution (Solution B) was prepared. Added to 0.4 ml of Solution B was 0.1 ml of suspension A. After the resultant mixture was shaken for 1 hour in a thermostat water bath controlled at 30° C., 50 μl of 6N sulfuric acid were added to terminate the reaction.
Next, the reaction-terminated liquid mixture was transferred into a thermostat water bath controlled at 60° C. and was heated for 15 minutes. Thereafter, 0.5 ml of a 0.5% creatine solution and 0.5 ml of a 5% alkaline α-naphthol solution were added, and the resultant mixture was maintained at 60° C. for 15 minutes. As a result, the test solution developed a pink-red color. After the above operation, the absorbance of the test solution at 525 nm was measured by a spectrophotometer (Absorbance 1 of Test Compound).
On the other hand, the absorbance (Absorbance 2 of Blank) of a solution obtained by subjecting a portion of Solution B, said portion being free of the test compound, to the above operation and the absorbance (Absorbance 3 of sulfuric acid terminated) of another solution obtained by subjecting another portion of Solution B, said portion containing 50 μl of 6N sulfuric acid as a test compound, were measured at the same time. Based on the values of the respective measurements, the enzyme assay at 1,000 ppm (0.5 mg/0.5 ml) of each compound was determined. [formula]

Row | SMILES | Injury Rice [1] | Herbicidal effects Green foxtail [2] | Herbicidal effects Johnsongrass [3] | Herbicidal effects Redroot pigweed [4] | Herbicidal effects Barnyardgrass [5] | Herbicidal effects Common lambsquarters [6] | Herbicidal effects Large crabgrass [7] | Herbicidal effects Foxtail meadow [8] | Herbicidal effects Green foxtail [9] | Herbicidal effects Johnsongrass [10] | Herbicidal effects Redroot pigweed [11] | Herbicidal effects Barnyardgrass [12] | Herbicidal effects Common lambsquarters [13] | Herbicidal effects Large crabgrass [14] | Herbicidal effects Foxtail meadow [15] | Inhibitory activity (%) Pea [16] [%]
1 | COC(=O)c1ccccc1Oc1nc(OC)cc(OC)n1 [A, reference compound] | 5 (0-5 (Death)) | 5 (0-5 (Death)) | 5 (0-5 (Death)) | 5 (0-5 (Death)) | 5 (0-5 (Death)) | 4 (6-10 (Severe damages)) | 5 (0-5 (Death)) | 5 (0-5 (Death)) | 5 (0-5 (Death)) | 5 (0-5 (Death)) | 5 (0-5 (Death)) | 5 (0-5 (Death)) | 4 (6-10 (Severe damages)) | 5 (0-5 (Death)) | 5 (0-5 (Death)) | 72
2 | COc1cc(OC)nc(Oc2ccccc2C=O)n1 [B, reference compound] | 5 (0-5 (Death)) | 4 (6-10 (Severe damages)) | 4 (6-10 (Severe damages)) | 3 (11-40 (Medium damages)) | 4 (6-10 (Severe damages)) | 3 (11-40 (Medium damages)) | 4 (6-10 (Severe damages)) | 4 (6-10 (Severe damages)) | 4 (6-10 (Severe damages)) | 4 (6-10 (Severe damages)) | 3 (11-40 (Medium damages)) | 4 (6-10 (Severe damages)) | 3 (11-40 (Medium damages)) | 4 (6-10 (Severe damages)) | 4 (6-10 (Severe damages)) | 92
3 | CON=Cc1ccccc1Oc1nc(OC)cc(OC)n1 [Compound No. 1, O-methyl--2-(4,6-dimethoxy-2-pyrimidinyloxy)benzaldoxime] | 0 (91-100 (No damages)) | 5 (0-5 (Death)) | 5 (0-5 (Death)) | 5 (0-5 (Death)) | 5 (0-5 (Death)) | 4 (6-10 (Severe damages)) | 4 (6-10 (Severe damages)) | 5 (0-5 (Death)) | 5 (0-5 (Death)) | 5 (0-5 (Death)) | 5 (0-5 (Death)) | 5 (0-5 (Death)) | 4 (6-10 (Severe damages)) | 3 (11-40 (Medium damages)) | 5 (0-5 (Death)) | 3
4 | C=CC(C)ON=Cc1ccccc1Oc1nc(OC)cc(OC)n1 (stereo not drawn) [Compound No. 2] | 1 (71-90 (Slight damages)) | 5 (0-5 (Death)) | 5 (0-5 (Death)) | 4 (6-10 (Severe damages)) | 5 (0-5 (Death)) | 4 (6-10 (Severe damages)) | 5 (0-5 (Death)) | 5 (0-5 (Death)) | 5 (0-5 (Death)) | 5 (0-5 (Death)) | 4 (6-10 (Severe damages)) | 5 (0-5 (Death)) | 4 (6-10 (Severe damages)) | 5 (0-5 (Death)) | 5 (0-5 (Death)) | 0
5 | COc1cc(OC)nc(Oc2ccccc2C=NOC2CCCCC2)n1 [Compound No. 3] | 0 (91-100 (No damages)) | 4 (6-10 (Severe damages)) | 4 (6-10 (Severe damages)) | 3 (11-40 (Medium damages)) | 3 (11-40 (Medium damages)) | 3 (11-40 (Medium damages)) | 3 (11-40 (Medium damages)) | 3 (11-40 (Medium damages)) | 5 (0-5 (Death)) | 5 (0-5 (Death)) | 4 (6-10 (Severe damages)) | 5 (0-5 (Death)) | 4 (6-10 (Severe damages)) | 4 (6-10 (Severe damages)) | 5 (0-5 (Death)) | 0
6 | C=CCON=Cc1ccccc1Oc1nc(OC)cc(OC)n1 [Compound No. 4] | 0 (91-100 (No damages)) | 5 (0-5 (Death)) | 5 (0-5 (Death)) | 4 (6-10 (Severe damages)) | 5 (0-5 (Death)) | 3 (11-40 (Medium damages)) | 4 (6-10 (Severe damages)) | 5 (0-5 (Death)) | 5 (0-5 (Death)) | 5 (0-5 (Death)) | 4 (6-10 (Severe damages)) | 5 (0-5 (Death)) | 3 (11-40 (Medium damages)) | 3 (11-40 (Medium damages)) | 5 (0-5 (Death)) | 0
